Experimental data: ChEMBL document CHEMBL4400558, “Optimization of Blood-Brain Barrier Permeability with Potent and Selective Human Neuronal Nitric Oxide Synthase Inhibitors Having a 2-Aminopyridine Scaffold” (J Med Chem, 2019)

Biological target: Nitric oxide synthase 1 (Homo sapiens, UniProt P29475)
Sequence (P29475 whole entry): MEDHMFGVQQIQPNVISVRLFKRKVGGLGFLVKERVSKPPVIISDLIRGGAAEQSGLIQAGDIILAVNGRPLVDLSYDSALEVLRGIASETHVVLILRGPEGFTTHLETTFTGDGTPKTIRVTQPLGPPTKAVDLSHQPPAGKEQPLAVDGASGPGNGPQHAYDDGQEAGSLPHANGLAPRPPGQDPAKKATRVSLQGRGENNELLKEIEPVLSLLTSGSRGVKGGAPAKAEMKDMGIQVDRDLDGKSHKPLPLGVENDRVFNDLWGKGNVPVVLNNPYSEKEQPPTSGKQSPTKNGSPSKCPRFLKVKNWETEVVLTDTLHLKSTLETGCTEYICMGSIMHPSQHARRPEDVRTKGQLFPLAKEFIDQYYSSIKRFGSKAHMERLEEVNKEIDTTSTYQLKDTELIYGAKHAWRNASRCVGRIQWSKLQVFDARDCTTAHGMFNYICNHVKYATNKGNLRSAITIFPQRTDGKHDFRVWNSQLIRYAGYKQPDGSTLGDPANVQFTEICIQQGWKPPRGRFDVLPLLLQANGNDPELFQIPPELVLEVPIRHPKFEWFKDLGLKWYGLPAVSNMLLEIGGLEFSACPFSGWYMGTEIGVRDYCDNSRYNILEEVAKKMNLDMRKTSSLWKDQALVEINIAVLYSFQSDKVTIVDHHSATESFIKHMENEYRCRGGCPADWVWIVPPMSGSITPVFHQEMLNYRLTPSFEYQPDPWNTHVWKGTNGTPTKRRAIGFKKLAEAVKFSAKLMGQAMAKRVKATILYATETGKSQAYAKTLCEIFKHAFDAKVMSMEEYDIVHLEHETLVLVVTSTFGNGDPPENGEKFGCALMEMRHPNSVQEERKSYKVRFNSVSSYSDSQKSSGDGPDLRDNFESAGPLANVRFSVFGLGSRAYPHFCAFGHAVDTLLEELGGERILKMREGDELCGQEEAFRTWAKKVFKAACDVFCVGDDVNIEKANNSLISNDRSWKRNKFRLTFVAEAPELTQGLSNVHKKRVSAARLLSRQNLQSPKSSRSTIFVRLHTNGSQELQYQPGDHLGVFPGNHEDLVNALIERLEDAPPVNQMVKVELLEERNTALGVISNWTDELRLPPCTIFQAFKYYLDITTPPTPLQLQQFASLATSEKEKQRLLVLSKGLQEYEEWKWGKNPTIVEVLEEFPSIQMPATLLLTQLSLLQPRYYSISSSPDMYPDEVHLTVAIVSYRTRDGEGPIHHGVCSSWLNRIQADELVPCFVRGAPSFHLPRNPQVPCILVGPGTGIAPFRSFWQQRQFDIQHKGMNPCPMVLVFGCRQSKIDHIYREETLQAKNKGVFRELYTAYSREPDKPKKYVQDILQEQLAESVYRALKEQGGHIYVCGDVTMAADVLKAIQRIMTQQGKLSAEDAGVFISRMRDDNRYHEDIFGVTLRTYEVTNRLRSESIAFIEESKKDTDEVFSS

- Ki: 29 nM
Structure (SMILES): Cc1cc(N)nc(CCc2cc(CCCN(C)C)cc(F)c2F)c1
